In general, Km refers to the concentration of substrate that gives half-maximal velocity.

Drawing on article PMC9122903, “First purified recombinant CYP75B including transmembrane helix with unexpected high substrate specificity to (2R)-naringenin” (Scientific Reports, 2022), this text covers Km for five molecules.

Assay in all cases: hydroxylation, product quantified by HPLC-DAD ([…] nm)
Format in all cases: biochemical, Dahlia pinnata
Common to all, as to settings: 1.55 mM NADPH, CrCPR microsomes, pH 7.5, 30 °C

For assay [1], the system named is T1, DvCH3H (chalcone 3-hydroxylase).
T1 construct: gene CH3H; assayed with yeast microsomes containing recombinant Catharanthus roseus CPR (GenBank X69791.1); with NADPH--cytochrome P450 reductase (Catharanthus roseus)

The test system is the same in assay [2]. This is another data set of the same source.
The test system is the same in assay [3]. This is another data set of the same source.

As to `O=c1c(O)c(-c2ccc(O)cc2)oc2cc(O)cc(O)c12` [Kaempferol], the Km in assay [1] was 0.622 ± 0.069 µM.

As for `O=C1C[C@H](c2ccc(O)cc2)Oc2cc(O)cc(O)c21` [(2R)-Naringenin], in assay [2], the Km stood at 0.408 ± 0.015 µM. On the same count and under the same terms, in the case of `O=C1C[C@@H](c2ccc(O)cc2)Oc2cc(O)cc(O)c21` [(2S)-Naringenin] it was 0.76 ± 0.094 µM. Regarding `O=c1cc(-c2ccc(O)cc2)oc2cc(O)cc(O)c12` [Apigenin], the Km in assay [3] turned out to be 0.329 ± 0.007 µM. As to `O=C1CC(c2ccc(O)cc2)Oc2cc(O)cc(O)c21` (racemic) [Racemic Naringenin], the Km in assay [2] (racemic mixture) turned out to be 0.402 ± 0.046 µM.
